Experimental data taken from paper PMC12254266, “Multicolored sequential resonance energy transfer for detection of simultaneous ligand binding at G protein-coupled receptors” (Nature Communications, 2025).
Several values for one entry are separate records, joined by “and”; a condition that tells them apart may be missing. Equal entries are not always repeated.

Target: FFA1-Nluc (Homo sapiens, UniProt O14842)
Test: DISCo-BRET (endpoint, spectra scan, kinetics) with TUG-2591 and TUG-2597 at C terminal Nluc tagged FFA1
Format: binding
Design: expressed in transfected cells
Conditions: for pIC50 DISCo-BRET SulfoCy5/NBD: one site model; for Specific BRET (690/540), % of control: Figure 4Aiii; for Specific BRET (690/540), % of control / Specific BRET (540/450), % of control: single replicate values (technical duplicate); for Specific BRET (540/450), % of control: Figure 4Biii; for pKi DISCo-BRET SulfoCy5/NBD: using Kd TUG-2591 57 nM
Procedure: Nluc-FFA1 or FFA1-Nluc Flp-In T-REx 293 cells were plated at 50,000 cells per well in poly-D-lysine coated white 96-well plates. Cells were cultured for 24 h in the plate before medium was replaced with medium containing 100 ng/mL of doxycycline to induce receptor expression. After culturing for a further 24 h, culture medium was removed, cells washed with HBSS and incubated in HBSS for 30 min. For all DISCo-BRET formats Nano-Glo substrate was then added at a 1:800 final dilution and cells incubated for 10 min. Following substrate addition experimental set up different among the three formats: endpoint, spectra scan, and kinetics.
For endpoint experiments all fluorescent and unlabelled ligands were added to the cells and incubated for 5 min at 37 °C. Luminescent emission was then measured using a CLARIOstar microplate reader with monochromator set at 450–60 nm (Nluc), 540−60 nm (NBD) and 690–100 nm (SulfoCy5). BRET ratios were then calculated as either SulfoCy5 emission divided by NBD emission, SulfoCy5 emission divided by Nluc emission, or NBD emission divided by Nluc emission.
For spectra scan experiments all indicated fluorescent and unlabelled ligands were added to the cells and cells incubated for 5 min at 37 °C. Luminescence emissions were then measured from each well of the plate from 440 nm – 740 nm with a 5 nm resolution using a CLARIOstar microplate. Luminescent emission spectra were then normalised as a percentage of the maximal Nluc emission peak ( ~ 460 nm), then subtracted with the spectrum obtained in the presence of high concentrations of ligands competing for both binding sites to obtain specific BRET binding spectra.
In kinetic DISCo-BRET experiments plates were placed directly in a CLARIOstar plate reader set to 25 °C 10 min after Nano-Glo substrate addition. Luminescent measurements were then taken with three sequential measurements per well with the monochromator set to 450–60 nm (Nluc), 540 - 60 nm (NBD) and 690–100 nm (SulfoCy5) taken in 20 or 30 s intervals. After 5 min of background measurements, the plate reader was paused for the first indicated fluorescent ligand(s) addition, before immediately returning the plate to the reader to continue luminescence readings. After 5 min, the reader was again paused to add the second fluorescent ligand (association assays) or competing ligand(s) (dissociation assays), before immediately continuing the measurements for the indicated time. Non-specific control binding was obtained by adding the indicated competing ligand(s) 5 min prior to the addition of the first fluorescent ligand.

[1] = 100 nM TUG-2591 and […] TUG-2597, NC = No competition
[2] = percentage of binding obtained in the absence of competing ligand, 100 nM TUG-2591 and […] TUG-2597

Chain of FFA1-Nluc (O14842 whole entry): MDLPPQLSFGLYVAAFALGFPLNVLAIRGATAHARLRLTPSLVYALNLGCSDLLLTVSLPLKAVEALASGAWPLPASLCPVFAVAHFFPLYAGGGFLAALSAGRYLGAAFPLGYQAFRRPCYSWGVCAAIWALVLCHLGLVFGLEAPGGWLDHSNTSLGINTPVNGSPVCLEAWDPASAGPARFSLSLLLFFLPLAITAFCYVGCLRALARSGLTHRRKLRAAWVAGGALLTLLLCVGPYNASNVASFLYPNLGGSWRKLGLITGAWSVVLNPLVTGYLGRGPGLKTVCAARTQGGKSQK

SMILES	pIC50 DISCo-BRET SulfoCy5/NBD [1]	Specific BRET (690/540), % of control (log[Ligand] -5)	Specific BRET (540/450), % of control (log[Ligand] -5)	Specific BRET (690/540), % of control (log[Ligand] -5.5)	Specific BRET (540/450), % of control (log[Ligand] -5.5)	Specific BRET (690/540), % of control (log[Ligand] -6)	Specific BRET (540/450), % of control (log[Ligand] -6)	Specific BRET (690/540), % of control (log[Ligand] -6.5)	Specific BRET (540/450), % of control (log[Ligand] -6.5)	Specific BRET (690/540), % of control (log[Ligand] -7)	Specific BRET (540/450), % of control (log[Ligand] -7)	Specific BRET (690/540), % of control (log[Ligand] -8)	Specific BRET (540/450), % of control (log[Ligand] -8)	Specific BRET (690/540), % of control (log[Ligand] -9)	Specific BRET (540/450), % of control (log[Ligand] -9)	'bottom' of the IC50 curve, DISCo-BRET SulfoCy5/NBD [2] [%]	pKi DISCo-BRET SulfoCy5/NBD	pIC50 DISCo-BRET NBD/Nluc [1]	'bottom' of the IC50 curve, DISCo-BRET NBD/Nluc (percentage of binding obtained in the absence of competing ligand) [%]
CCCN1C(=O)c2ccccc2[C@@H](C(=O)O)[C@@H]1c1ccc(OCc2cccc(-c3ccc(OCCOCCNC(=O)OC(C)(C)C)cc3C)c2)cc1 (racemic) [TUG-2744]	6.2±0.07	39.83 % of control and 31.90 % of control and 49.72 % of control and 41.62 % of control and 42.27 % of control and 54.60 % of control and 24.29 % of control and 24.93 % of control	137.97 % of control and 140.19 % of control and 93.19 % of control and 74.76 % of control	37.03 % of control and 28.64 % of control and 34.65 % of control and 33.07 % of control and 31.01 % of control and 33.80 % of control and 21.95 % of control and 22.19 % of control	128.99 % of control and 129.28 % of control and 107.91 % of control and 104.11 % of control and 75.59 % of control and 66.37 % of control	54.48 % of control and 58.02 % of control and 68.62 % of control and 58.61 % of control and 60.18 % of control and 39.48 % of control and 47.55 % of control and 54.64 % of control	100.93 % of control and 117.25 % of control and 87.18 % of control and 77.69 % of control and 68.48 % of control and 67.29 % of control	81.72 % of control and 80.69 % of control and 83.13 % of control and 96.40 % of control and 81.56 % of control and 79.15 % of control and 75.55 % of control and 78.81 % of control	102.36 % of control and 114.39 % of control and 83.39 % of control and 83.86 % of control and 94.27 % of control and 96.38 % of control	91.79 % of control and 92.91 % of control and 97.64 % of control and 109.79 % of control and 98.51 % of control and 104.19 % of control and 93.40 % of control and 97.61 % of control	116.11 % of control and 107.80 % of control and 95.73 % of control and 91.61 % of control and 84.18 % of control and 85.41 % of control	103.08 % of control and 96.92 % of control and 107.31 % of control and 115.19 % of control and 106.98 % of control and 101.78 % of control and 103.46 % of control and 103.17 % of control	110.67 % of control and 105.51 % of control and 101.90 % of control and 100.00 % of control and 64.33 % of control and 77.86 % of control	95.62 % of control and 111.25 % of control and 100.79 % of control and 103.71 % of control and 132.11 % of control	110.95 % of control and 125.84 % of control and 113.61 % of control and 148.10 % of control and 60.11 % of control and 65.92 % of control	26	6.6±0.07	–	–
CCCN1C(=O)c2ccccc2[C@@H](C(=O)O)[C@@H]1c1ccc(OCc2cccc(C(F)(F)F)c2)cc1 [TUG-2743]	6.0±0.1	6.26 % of control and 15.30 % of control and 0.00 % of control and 23.39 % of control and 7.57 % of control and 16.15 % of control and 4.80 % of control and 5.42 % of control	61.42 % of control and 37.32 % of control and -37.32 % of control and -3.93 % of control and 3.93 % of control and 54.66 % of control and 43.23 % of control	25.12 % of control and 40.23 % of control and 23.90 % of control and 52.64 % of control and 8.58 % of control and 35.72 % of control and 22.62 % of control and 24.58 % of control	68.58 % of control and 86.33 % of control and -8.16 % of control and -102.04 % of control and 41.80 % of control and 13.93 % of control and 39.36 % of control and 39.62 % of control	58.42 % of control and 58.33 % of control and 46.92 % of control and 53.66 % of control and 32.09 % of control and 48.03 % of control and 43.57 % of control and 46.72 % of control	100.93 % of control and 79.17 % of control and 5.25 % of control and 9.91 % of control and 41.19 % of control and 34.87 % of control and 62.06 % of control	76.32 % of control and 72.57 % of control and 71.58 % of control and 84.17 % of control and 56.21 % of control and 64.88 % of control and 65.73 % of control and 61.96 % of control	–	89.22 % of control and 91.72 % of control and 94.47 % of control and 101.84 % of control and 86.98 % of control and 84.36 % of control and 91.26 % of control and 83.54 % of control	106.08 % of control and 110.38 % of control and 76.97 % of control and 86.30 % of control and 79.83 % of control and 51.81 % of control and 67.53 % of control and 67.76 % of control	93.65 % of control and 94.71 % of control and 131.47 % of control and 106.17 % of control and 87.89 % of control and 98.79 % of control and 100.59 % of control and 92.67 % of control	118.40 % of control and 124.70 % of control and 235.57 % of control and 32.65 % of control and 76.75 % of control and 53.35 % of control and 80.89 % of control and 68.94 % of control	99.33 % of control and 100.67 % of control and 26.06 % of control and 102.35 % of control and 91.83 % of control and 93.74 % of control	129.56 % of control and 130.71 % of control and -41.98 % of control and 129.45 % of control and 107.24 % of control and 49.50 % of control and 87.02 % of control and 76.46 % of control	3.2	6.5±0.1	6.1±0.2	10
